Test results published in the supplement of paper PMC10307832.

How the values were obtained:
Experiment in all cases: relative viability (nuclei count vs DMSO), 5 days (fraction); higher = more cells survive
[1] = compound: COc1cc2ncn(-c3cc(OCc4ccccc4C(F)(F)F)c(C(N)=O)s3)c2cc1OC + Cc1nc(NC(=O)N2CCC[C@H]2C(N)=O)sc1-c1ccnc(C(C)(C)C(F)(F)F)c1 [Alpelisib] (partner 2 µM)
Summary of the method: (§1)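 Medians of duplicate plates are given as relative viability. That measure is the nuclei count in treated wells divided by the count in vehicle wells. Counts were taken on 4× images of lung cancer cell lines in 1536-well plates, 5 days after pin-tool dosing the day after seeding with one drug alone or a fixed anchor-drug dose plus five library-drug doses (not always all listed) in √10 steps.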

[2] = compound: COc1cc2ncn(-c3cc(OCc4ccccc4C(F)(F)F)c(C(N)=O)s3)c2cc1OC + Nc1ncn([C@H]2C[C@H](O)[C@@H](CO)O2)c(=O)n1 [Decitabine] (partner 2 µM)
Summary of the method: as §1

[3] = compound: COc1cc2ncn(-c3cc(OCc4ccccc4C(F)(F)F)c(C(N)=O)s3)c2cc1OC + CS(=O)(=O)N1CCN(Cc2cc3nc(-c4cccc5[nH]ncc45)nc(N4CCOCC4)c3s2)CC1 [Pictilisib] (partner 1 µM)
Summary of the method: as §1

[4] = compound: COc1cc2ncn(-c3cc(OCc4ccccc4C(F)(F)F)c(C(N)=O)s3)c2cc1OC + C[C@]1(O)C[C@@H](c2nc(-c3ccc4ccc(-c5ccccc5)nc4c3)c3c(N)nccn32)C1 [Linsitinib] (partner 1 µM)
Summary of the method: as §1

Cell Line	relative viability ([1]; first compound 0.05 µM)	relative viability ([1]; first compound 0.1581 µM)	relative viability ([1]; first compound 0.5 µM)	relative viability ([1]; first compound 1.581 µM)	relative viability ([1]; first compound 5 µM)	relative viability ([2]; first compound 0.05 µM)	relative viability ([2]; first compound 0.1581 µM)	relative viability ([2]; first compound 0.5 µM)	relative viability ([2]; first compound 1.581 µM)	relative viability ([2]; first compound 5 µM)	relative viability ([3]; first compound 0.05 µM)	relative viability ([3]; first compound 0.1581 µM)	relative viability ([3]; first compound 0.5 µM)	relative viability ([3]; first compound 1.581 µM)	relative viability ([3]; first compound 5 µM)	relative viability ([4]; first compound 0.05 µM)	relative viability ([4]; first compound 0.1581 µM)	relative viability ([4]; first compound 0.5 µM)	relative viability ([4]; first compound 1.581 µM)	relative viability ([4]; first compound 5 µM)
COR-L 105	1.13	0.913	0.857	0.34	0.258	0.65	0.601	0.572	0.438	0.278	0.475	0.386	0.267	0.279	0.259	1.13	0.935	0.713	0.42	0.306
LK-2	1.13	0.957	0.575	0.298	0.263	0.271	0.236	0.133	0.131	0.0977	0.548	0.566	0.307	0.263	0.306	0.591	0.413	0.284	0.182	0.165
NCI-H838	1.25	1.02	0.956	0.36	0.142	0.401	0.426	0.328	0.169	0.135	0.514	0.519	0.478	0.14	0.0851	1.15	1.04	0.873	0.178	0.105
SK-LU-1	1.02	0.778	0.276	0.291	0.306	0.663	0.487	0.494	0.317	0.304	0.568	0.516	0.423	0.213	0.178	1.28	1.01	0.395	0.399	0.295
NCI-H2023	0.547	0.634	0.61	0.0955	0.0801	0.203	0.213	0.159	0.0779	0.0772	0.228	0.287	0.196	0.12	0.0888	0.593	0.769	0.49	0.123	0.0804
NCI-H322M	0.797	0.847	0.687	0.426	0.336	0.676	0.73	0.581	0.446	0.415	0.549	0.505	0.556	0.384	0.318	0.893	0.856	0.748	0.401	0.408
NCI-H1666	1.22	0.834	0.493	0.29	0.292	0.749	0.719	0.693	0.501	0.424	0.404	0.38	0.332	0.188	0.193	0.821	0.953	0.37	0.219	0.248
NCI-H1648	–	–	–	–	–	0.473	0.602	0.345	0.235	0.225	–	–	–	–	–	–	–	–	–	–
NCI-H2087	1.18	0.953	0.311	0.169	0.142	0.317	0.227	0.152	0.0875	0.106	1.11	0.556	0.454	0.211	0.134	0.995	0.981	0.307	0.168	0.195
LU99A	0.488	0.495	0.36	0.189	0.167	0.767	0.825	0.604	0.194	0.191	0.307	0.342	0.271	0.159	0.15	0.502	0.522	0.224	0.212	0.161
HCC-366	0.656	0.246	0.123	0.0134	0.0086	0.255	0.372	0.326	0.0359	0.0203	0.149	0.12	0.0681	0.0359	0.015	0.837	0.635	0.114	0.0118	0.0055
EKVX	0.889	0.982	0.834	0.21	0.215	0.324	0.381	0.273	0.175	0.204	0.42	0.516	0.427	0.262	0.291	1.06	1.07	0.858	0.214	0.42
NCI-H522	–	–	–	–	–	0.574	0.628	0.54	0.618	0.36	–	–	–	–	–	–	–	–	–	–
NCI-H1755	0.945	0.953	0.716	0.352	0.262	0.702	0.682	0.716	0.57	0.397	0.457	0.371	0.355	0.203	0.169	0.995	1.02	0.799	0.416	0.349
NCI-H650	1.11	1.1	0.698	0.185	0.29	0.329	0.309	0.261	0.175	0.236	0.959	0.781	0.642	0.224	0.396	0.896	1.17	0.505	0.118	0.171
LC-2-ad	0.791	0.784	0.135	0.113	0.1	0.824	0.761	0.63	0.203	0.2	0.383	0.108	0.0797	0.0935	0.0834	0.722	0.685	0.119	0.106	0.0972
NCI-H1793	0.611	0.745	0.394	0.22	0.191	0.244	0.469	0.408	0.223	0.137	0.272	0.308	0.179	0.192	0.228	0.928	0.847	0.763	0.248	0.145
HCC-827	0.887	1.03	0.667	0.286	0.226	0.344	0.346	0.328	0.234	0.28	0.917	1.13	0.968	0.77	0.56	0.968	0.924	0.798	0.401	0.27
HCC-78	0.371	0.402	0.289	0.206	0.27	0.688	0.652	0.671	0.473	0.446	0.221	0.188	0.186	0.206	0.186	0.537	0.597	0.368	0.315	0.394

Cell Line	relative viability ([1]; first compound 0.05 µM)	relative viability ([1]; first compound 0.1581 µM)	relative viability ([1]; first compound 0.5 µM)	relative viability ([1]; first compound 1.581 µM)	relative viability ([1]; first compound 5 µM)	relative viability ([2]; first compound 0.05 µM)	relative viability ([2]; first compound 0.1581 µM)	relative viability ([2]; first compound 0.5 µM)	relative viability ([2]; first compound 1.581 µM)	relative viability ([2]; first compound 5 µM)	relative viability ([3]; first compound 0.05 µM)	relative viability ([3]; first compound 0.1581 µM)	relative viability ([3]; first compound 0.5 µM)	relative viability ([3]; first compound 1.581 µM)	relative viability ([3]; first compound 5 µM)	relative viability ([4]; first compound 0.05 µM)	relative viability ([4]; first compound 0.1581 µM)	relative viability ([4]; first compound 0.5 µM)	relative viability ([4]; first compound 1.581 µM)	relative viability ([4]; first compound 5 µM)
NCI-H2085	1.01	0.959	0.75	0.4	0.386	0.508	0.502	0.431	0.36	0.363	0.47	0.45	0.463	0.273	0.273	0.885	0.731	0.601	0.168	0.416
PC-3 [JPC-3]	0.983	0.98	0.707	0.307	0.318	0.779	0.842	0.653	0.396	0.43	0.728	0.78	0.611	0.327	0.26	0.91	0.945	0.744	0.309	0.286
NCI-H2342	–	–	–	–	–	0.628	0.701	0.626	0.569	0.528	–	–	–	–	–	–	–	–	–	–
A-427	1.01	1.13	1	0.486	0.161	0.619	0.6	0.498	0.399	0.205	0.76	0.527	0.729	0.262	0.117	1.14	1.15	1.03	0.566	0.179
H3255	0.626	0.796	0.444	0.335	0.233	0.518	0.674	0.625	0.312	0.294	0.458	0.467	0.247	0.21	0.187	0.858	0.962	0.533	0.248	0.228
HCC-44	0.908	0.76	0.503	0.13	0.0819	0.987	0.984	0.906	0.433	0.258	0.76	0.601	0.632	0.104	0.11	0.773	0.621	0.55	0.141	0.109
NCI-H1734	0.784	0.721	0.571	0.334	0.224	0.382	0.588	0.469	0.214	0.157	0.493	0.48	0.409	0.206	0.172	0.946	0.956	0.644	0.309	0.215
NCI-H2228	0.612	0.866	0.186	0.187	0.272	–	–	–	–	–	0.331	0.423	0.237	0.165	0.303	0.525	0.52	0.253	0.176	0.231
ABC-1	1.25	1.02	0.786	0.316	0.319	1.21	1.18	0.761	0.513	0.357	0.645	0.791	0.634	0.284	0.229	0.862	0.874	0.582	0.302	0.218
COR-L23	0.85	0.746	0.334	0.0804	0.0944	0.435	0.394	0.305	0.145	0.159	0.876	0.9	0.533	0.0929	0.0905	0.887	0.761	0.332	0.0808	0.1
NCI-H727	0.545	0.695	0.41	0.282	0.247	1.03	0.927	0.825	0.616	0.568	0.392	0.373	0.403	0.245	0.188	0.321	0.283	0.166	0.186	0.305
ChaGo-K-1	–	–	–	–	–	0.567	0.504	0.43	0.255	0.162	0.676	0.419	0.594	0.322	0.248	–	–	–	–	–
NCI-H1650	–	–	–	–	–	0.396	0.382	0.329	0.219	0.138	0.52	0.615	0.322	0.156	0.146	–	–	–	–	–
EBC-1	0.82	0.682	0.235	0.207	0.194	–	–	–	–	–	0.478	0.383	0.145	0.134	0.141	0.798	0.889	0.446	0.169	0.134
NCI-H1703	0.3	0.368	0.271	0.142	0.12	–	–	–	–	–	0.256	0.227	0.2	0.126	0.172	0.721	0.992	0.205	0.143	0.078
CAL-12T	1.03	0.973	0.513	0.188	0.196	–	–	–	–	–	0.351	0.389	0.323	0.186	0.177	0.775	0.746	0.423	0.246	0.228
NCI-H1563	0.953	1.02	0.917	0.745	0.599	–	–	–	–	–	0.684	0.607	0.683	0.55	0.5	1.22	1.18	1.22	1.21	0.799
NCI-H2170	0.789	0.799	0.41	0.176	0.18	0.49	0.458	0.285	0.151	0.166	0.342	0.318	0.188	0.192	0.156	–	–	–	–	–
